Peptide text beside a SMILES is read from it. * marks the point of attachment. X1 = CC1(C)C(/C=C/C2=C(Oc3ccc(S(=O)(=O)O)cc3)C(=C\C=C3/N(CCCCCC(=O)NCCN4C(=O)CC(*)C4=O)c4ccc(S(=O)(=O)O)cc4C3(C)C)/CCC2)=[N+](CCCCS(=O)(=O)O)c2ccc(S(=O)(=O)[O-])cc21
Molecular target: T1, Human αvβ8 (Homo sapiens, UniProt P06756+P26012)
T1 construct: purchased Bio-Techne
Experiment: direct integrin binding assay of peptide-IRDye conjugates, human αvβ8-coated plates
Settings: plates coated with recombinant human αvβ8; conjugate 0.01-100 nM, 1 h; bound NIR fluorescence; mean ± SE, n = 2 experiments
Protocol: The affinity of peptide-IRDye conjugates for αvβ6 and αvβ8 integrins was determined by a direct binding assay using microtiter plates coated with αvβ6 or αvβ8 (Bio-Techne). After 1 h of incubation, the plates were washed; bound fluorescence was quantified by scanning the plates with an Odyssey CLx near-infrared fluorescence imaging system (LI-COR). […]
The simplified molecular-input line-entry system (SMILES) of 5a-, 2a-, Cys- and 5a-Scr- […]
The concentration of each conjugate was quantified by spectrophotometric analysis at 774 nm (molar absorption coefficient, 240,000 M-1, cm-1) (Figure S3B). The final yield of 5a-IRDye […]
Binding of peptide-IRDye conjugates to avb6 and avb8 integrin
The binding affinity of peptide-IRDye conjugates for human and murine avb6 and avb8 integrins was determined as follows: 96-well clear-bottom black microtiter plates (Corning® cat. 3601) were coated with 2 μg/ml avb6 or avb8 (50 µl/well), in Dulbecco’s phosphate-buffered saline containing Ca2+ and Mg2+ (DPBS) and left to incubate overnight at 4°C. […]
conjugates were added to the microtiterplates and incubated at room temperature for 1 h (see Experimental Section). After washing, bound fluorescence was measured using an Odyssey CLx (LI-COR) scanner. Representative images of the scanned plates and quantification of binding are shown. […]

T1 sequence (P06756 31-992 limits assumed): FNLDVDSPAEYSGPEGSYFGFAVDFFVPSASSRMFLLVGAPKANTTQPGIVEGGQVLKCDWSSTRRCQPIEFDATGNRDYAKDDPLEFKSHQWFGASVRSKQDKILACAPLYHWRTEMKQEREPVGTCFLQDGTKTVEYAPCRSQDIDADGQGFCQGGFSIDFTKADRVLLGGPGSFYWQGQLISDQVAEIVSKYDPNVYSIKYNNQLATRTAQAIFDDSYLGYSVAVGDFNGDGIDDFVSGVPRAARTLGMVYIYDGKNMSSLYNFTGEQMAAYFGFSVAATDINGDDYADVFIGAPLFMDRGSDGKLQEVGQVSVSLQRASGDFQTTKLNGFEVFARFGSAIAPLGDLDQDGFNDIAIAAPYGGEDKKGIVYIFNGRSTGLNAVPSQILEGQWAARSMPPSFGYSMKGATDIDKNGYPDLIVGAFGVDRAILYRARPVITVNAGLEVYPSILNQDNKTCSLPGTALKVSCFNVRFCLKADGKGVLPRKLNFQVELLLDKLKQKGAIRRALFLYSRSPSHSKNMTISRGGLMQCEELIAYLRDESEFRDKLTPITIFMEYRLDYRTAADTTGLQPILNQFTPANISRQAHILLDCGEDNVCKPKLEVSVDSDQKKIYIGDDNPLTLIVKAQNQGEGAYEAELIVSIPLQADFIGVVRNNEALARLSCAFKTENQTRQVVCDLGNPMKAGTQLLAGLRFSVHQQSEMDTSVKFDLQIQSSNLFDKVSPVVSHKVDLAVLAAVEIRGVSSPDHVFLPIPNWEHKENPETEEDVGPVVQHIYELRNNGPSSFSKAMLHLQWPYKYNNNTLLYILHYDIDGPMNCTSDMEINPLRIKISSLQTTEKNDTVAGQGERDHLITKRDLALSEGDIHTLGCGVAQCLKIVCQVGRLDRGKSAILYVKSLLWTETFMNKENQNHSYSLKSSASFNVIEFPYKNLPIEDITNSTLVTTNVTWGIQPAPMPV
T1 sequence (P26012 43-684 limits assumed): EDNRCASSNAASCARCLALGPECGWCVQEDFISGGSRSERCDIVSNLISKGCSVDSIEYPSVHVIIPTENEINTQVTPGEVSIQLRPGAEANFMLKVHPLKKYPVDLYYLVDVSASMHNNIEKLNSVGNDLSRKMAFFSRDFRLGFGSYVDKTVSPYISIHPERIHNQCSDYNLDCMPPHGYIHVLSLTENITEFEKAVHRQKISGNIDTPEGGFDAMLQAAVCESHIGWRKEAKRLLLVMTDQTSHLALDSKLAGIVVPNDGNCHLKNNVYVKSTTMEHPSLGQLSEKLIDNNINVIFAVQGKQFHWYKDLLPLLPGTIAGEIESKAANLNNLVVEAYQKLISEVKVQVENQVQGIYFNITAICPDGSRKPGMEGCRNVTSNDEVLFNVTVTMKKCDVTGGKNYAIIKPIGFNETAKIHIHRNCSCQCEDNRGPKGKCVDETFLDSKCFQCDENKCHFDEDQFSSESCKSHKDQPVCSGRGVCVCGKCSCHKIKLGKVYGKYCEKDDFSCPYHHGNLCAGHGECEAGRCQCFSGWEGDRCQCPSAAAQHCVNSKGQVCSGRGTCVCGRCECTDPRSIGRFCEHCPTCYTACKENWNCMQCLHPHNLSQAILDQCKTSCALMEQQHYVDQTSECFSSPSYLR

EC50 | SMILES
> 100 nM | CC[C@H](C)[C@H](NC(=O)[C@H](CCCNC(=N)N)NC(=O)[C@H](CCC(=O)O)NC(=O)[C@H](CCC(=O)O)NC(=O)CNC(=O)[C@H](CCCNC(=N)N)NC(=O)[C@H](CC(C)C)NC(=O)[C@@H](NC(=O)[C@H](CCC(=O)O)NC(=O)[C@H](Cc1ccccc1)NC(=O)[C@@H](N)CSC1CC(=O)N(CCNC(=O)CCCCCN2/C(=C\C=C3\CCCC(/C=C/C4=[N+](CCCCS(=O)(=O)O)c5ccc(S(=O)(=O)[O-])cc5C4(C)C)=C3Oc3ccc(S(=O)(=O)O)cc3)C(C)(C)c3cc(S(=O)(=O)O)ccc32)C1=O)[C@@H](C)O)C(=O)N[C@@H](CC(C)C)C(=O)N[C@@H](CO)C(=O)N[C@H](C(=O)N[C@@H](CC(C)C)C(=O)N[C@@H](CCCNC(=N)N)C(=O)N[C@@H](Cc1c[nH]cn1)C(=O)N[C@@H](CCC(N)=O)C(=O)N[C@@H](CC(N)=O)C(=O)N[C@@H](CC(C)C)C(=O)N[C@@H](CC(C)C)C(=O)N[C@@H](CCCCN)C(=O)N[C@@H](CCC(=O)O)C(=O)N[C@@H](CC(C)C)C(=O)N[C@@H](CCC(N)=O)C(=O)N[C@@H](CC(=O)O)C(N)=O)[C@@H](C)CC (some centres unmarked) [2a-IRDye] (H-C(X1)FETLRGEERILSILRHQNLLKELQD-NH2)
> 100 nM | CC1(C)C(/C=C/C2=C(Oc3ccc(S(=O)(=O)O)cc3)C(=C\C=C3/N(CCCCCC(=O)NCCN4C(=O)CC(SC[C@H](N)C(=O)O)C4=O)c4ccc(S(=O)(=O)O)cc4C3(C)C)/CCC2)=[N+](CCCCS(=O)(=O)O)c2ccc(S(=O)(=O)[O-])cc21 (some centres unmarked) [Cys-IRDye]

From article PMC9760430, “A stapled chromogranin A-derived peptide homes in on tumors that express αvβ6 or αvβ8 integrins” (International Journal of Biological Sciences, 2023)
